Experimental data reported in PMC6882462 (Journal of Enzyme Inhibition and Medicinal Chemistry, 2019).
Read-outs that look alike come from different tables or passages of the source.

Key:
MCF-7 cells [1] = assay: Annexin V FITC/PI apoptosis assay; format: cell-based, human; conditions: 2.0 µM, 24 h
Procedure: To investigate whether compound 3a could induces apoptosis, the apoptotic effect of compound 3a and DMSO (control) were evaluated by an annexin V FITC/PI (AV/PI) dual staining assay. After treatment MCF-7 cells with compound 3a at the concentration of 2.0 µM for 24 h, the cells were labelled with the two dyes and analysed by flow cytometry. […] In addition, an increase in the early/primary apoptosis was also observed from 1.85% to 20.0% (Figure 4).
MCF-7 cells were grown in 6-well plates and treated with compound 3a (0.5, 2.0 and
10.0 μM) or DMSO for 24 h. After treatment, the cells were collected and stained with
PI (propidium iodide) for 20 min. Apoptosis was analyzed using a flow cytometer. […]

in vitro = conditions: human
MCF-7 cells [2] = assay: Cell cycle analysis by flow cytometry (PI); format: cell-based, human; conditions: 2.0 µM, 24 h
Text: Many studies have reported that tubulin polymerisation inhibitors can arrest cancer cells in G2/M phase and lead to apoptosis[24]^,[25]. The potent tubulin polymerisation inhibitory activity of compound 3a promoted us to further investigate its cellular mechanisms of action in MCF-7 cancer cells by using flow cytometry analysis. In order to elucidate the molecular mechanism of compound 3a, we first studied its effect on cell cycle progression in MCF-7 cells. […] In contrast, after treatment of MCF-7 cells with compound 3a at concentrations of 2.0 µM, the accumulation of cancer cells was detected at G2/M phase by 5.5 folds compared to the control group, from 15.19% in the control group to 84.55% in the compound 3a treated group (Figure 4). […]
MCF-7 cells were seeded in 6-well plates and incubated at 37 °C for overnight and treatment with DMSO or compound 3a (0.5, 2.0 and 10.0 μM) for 24 h. The cells were washed twice with PBS, and incubated for 0.5 h at 37 °C in a PBS solution containing 1 mg/mL RNase A and propidium iodide (PI). C ell cycle was analyzed by flow cytometry (TASC240, USA).

tubulin = assay: In vitro tubulin polymerisation inhibitory assay; format: biochemical
Procedure: 1.3 In vitro tubulin polymerization assay
To evaluate the eﬀect of the compound 3a on tubulin assembly in vitro, varying
DMSO were incubated with purified tubulin protein in PEM buffer [100 mM PIPES
(1,4-Piperazinediethanesulfonic acid), 1 mM MgCl2, and 1 mM EGTA(ethylene glycol
tetraacetic acid)] containing 1 mM GTP and 5 % glycerol. […]

[3] = test system: human breast carcinoma cell line MCF-7; assay: MTT antiproliferative assay against MCF-7; format: cell-based; conditions: read-out: IC50 (anticancer activity against MCF-7 cell line)
Procedure: All the synthesised naphthalene-chalcone derivatives 3a–3t were evaluated for their anticancer activity by 3-[4,5-dimethylthiazole-2-yl]-2,5-diphenyltetrazolium bromide (MTT) assay method against human breast carcinoma cell line MCF-7. Cisplatin was used as a reference drug. […]. […]
culture, the culture medium was removed, and cells were incubated with tetrazolium dye [3-(4,5-dimethylthiazol-2-yl)-2,5-diphenyltetrazo-lium bromide (MTT) solution for 4 h. Then, the supernatant was removed and the precipitates (formazan crystal) were […]
dissolved in DMSO. […]

SW620 colon cancer cells = test system: SW620 colon cancer cells; design: method as in PMID 25193463; conditions: cited from earlier work
xenografted tumour = test system: xenografted tumour; design: method as in PMID 24308485; conditions: cited from earlier work

IC50 ([3]; Homo sapiens, MCF7, 48 h)	melting point	SMILES	further results
6.67 ± 0.25 µM	109 to 110 °C	COc1cccc(/C=C/C(=O)c2c(OC)ccc3ccccc23)c1 [3h]	
7.82 ± 0.35 µM	157 to 159 °C	COc1ccc(/C=C/C(=O)c2c(OC)ccc3ccccc23)cc1[N+](=O)[O-] [3i]	
> 10 µM	149 to 150 °C	COc1ccc2ccccc2c1C(=O)/C=C/c1cccs1 [3j]	
4.74 ± 0.19 µM	142 to 143 °C	COc1ccc2ccccc2c1C(=O)/C=C/c1ccc(Cl)cc1 [3k]	
7.68 ± 0.32 µM	147 to 149 °C	COc1cc(OC)c(OC)cc1/C=C/C(=O)c1c(OC)ccc2ccccc12 [3l]	
6.66 ± 0.27 µM		COc1ccc2ccccc2c1C(=O)/C=C/c1ccccc1F [3m]	
7.62 ± 0.36 µM	142 to 144 °C	COc1ccc2ccccc2c1C(=O)/C=C/c1ccccc1 [3n]	
7.11 ± 0.47 µM	142 to 143 °C	COc1ccc2ccccc2c1C(=O)/C=C/c1cccc(F)c1 [3o]	
7.23 ± 0.38 µM	113 to 114 °C	COc1cc(/C=C/C(=O)c2c(OC)ccc3ccccc23)cc(OC)c1OC [3p]	
7.67 ± 0.39 µM	124 to 126 °C	COc1ccccc1/C=C/C(=O)c1c(OC)ccc2ccccc12 [3q]	
8.91 ± 0.52 µM	147 to 148 °C	COc1ccc2ccccc2c1C(=O)/C=C/c1ccc(N(C)C)cc1 [3r]	
7.62 ± 0.3 µM	142 to 144 °C	CCN(CC)c1ccc(/C=C/C(=O)c2c(OC)ccc3ccccc23)cc1 [3s]	
2.75 ± 0.26 µM		COc1ccc(/C=C/C(=O)c2c(OC)ccc3ccccc23)cc1N [3t]	

The next lines start with the compound.

SMILES	IC50 ([3]; Homo sapiens, MCF7, 48 h)	melting point	further results
COc1ccc(/C=C/C(=O)c2c(OC)ccc3ccccc23)cc1O [3a]	1.42 ± 0.15 µM		Q1 cell fraction (MCF-7 cells [1]): 1.95%; Q4 cell fraction (MCF-7 cells [1]): 71.7%; late/secondary cellular apoptosis (Q2) (MCF-7 cells [1]; control 0.68%): 6.34%; early/primary apoptosis (Q3) (MCF-7 cells [1]; control 1.85%): 20.0%; IC50 (in vitro): 18.3 ± 1.3 µM; accumulation of cells at G2/M phase compared to control (MCF-7 cells [2]): 5.5 folds; cells in G1 phase (MCF-7 cells [2]): 0.04%; cells in S phase (MCF-7 cells [2]): 15.41%; cells in G2/M phase (MCF-7 cells [2]; control 15.19%): 84.55%; inhibition of tubulin polymerisation (tubulin; 3.0 µM): 21%; inhibition of tubulin polymerisation (tubulin; 6.0 µM): 41%; inhibition of tubulin polymerisation (tubulin; 12.5 µM): 60%; inhibition of tubulin polymerisation (tubulin; 25 µM): 82%; IC50 (tubulin; purified tubulin, absorbance 340 nm, read-out: IC50 tubulin polymerisation inhibition): 8.4 µM
COc1ccc2ccccc2c1C(=O)/C=C/c1ccc(Br)cc1 [3b]	4.1 ± 0.25 µM	127 to 129 °C	
COc1ccc(/C=C/C(=O)c2c(OC)ccc3ccccc23)c(OC)c1OC [3c]	> 10 µM	107 to 108 °C	
COc1ccc2ccccc2c1C(=O)/C=C/c1ccccc1Br [3d]	7.63 ± 0.45 µM	150 to 152 °C	
COc1ccc2ccccc2c1C(=O)/C=C/c1cccc2ccccc12 [3e]	7.13 ± 0.33 µM	162 to 163 °C	
COc1ccc2ccccc2c1C(=O)/C=C/c1ccc2ccccc2c1 [3f]	6.87 ± 0.26 µM	107 to 109 °C	
COc1ccc(/C=C/C(=O)c2c(OC)ccc3ccccc23)cc1Br [3g]	7.11 ± 0.4 µM	168 to 169 °C	
N.N.[Cl][Pt][Cl] [Cisplatin, reference compound]			IC50 ([3]; 48 h): 15.2 ± 1.27 µM
COc1cc(OC)c(/C=C/C(=O)c2c(O)ccc3ccccc23)c(OC)c1 [HMNC-74]			inhibition of clonogenicity (SW620 colon cancer cells): strongly inhibited
COc1ccc(C(=O)/C=C/c2cccc3ccccc23)c(O)c1 [HymnPro, 2-hydroxy-4-methoxy-2′,3′-benzochalcone]			effect on xenografted tumour growth (xenografted tumour): suppressed xenografted tumour growth
